# Where a SMILES comes first, the peptide text is derived from it. The star is where a group is joined. Cbz = O=C(OCc1ccccc1)*
# Tests used:
# H3K4me3 = experiment: Western blot of H3K4me3 in yeast cells treated with glucose, 2-DG, FBP or pyruvate; type: cell-based, budding yeast (Saccharomyces cerevisiae); conditions: for H3K4me3 level after FBP or pyruvate treatment: spheroplasts (Zymolase), different concentrations of FBP or pyruvate, 3 hr
# Source text: To examine the effect of glucose on histone modifications, we grew yeast cells in 2% glucose-containing medium (YPD) until log phase. Cells were collected and then grown in the medium containing different concentrations of glucose for 0.5 hr.
# PKA is activated by cyclic AMP (cAMP), which binds to its inhibitory subunit, Bcy1 and causes its dissociation (Fig. 1g). We thus examined H3K4me3 in deletion mutants of cAMP phosphodiesterases PDE1 and PDE2, which encode enzymes to hydrolyze cAMP and inactivate PKA[39],[40]. […] To test whether the Ras-cAMP-PKA pathway mediates glucose-induced H3K4me3, we examined H3K4me3 in ras1Δ and ras2Δ mutants. […] Ras1/2 can be activated by glycolysis-derived fructose-1,6-biphosphate (FBP) via Cdc25[6] (Fig. 1g).
# To examine the effect of glucose on histone modifications, yeast cells were grown in 2% glucose-containing YPD (Yeast Extract Peptone Dextrose) medium until OD600 of 0.7–1.0. Cells were then collected, washed and resuspended in YP medium for 3 hr followed by treatment with different concentrations of glucose for 0.5 hr. For 1NM-PP1 (MCE, HY-13804) treatment, cells were grown in 2% YPD until OD600 of 0.7–1.0. Cells were then treated with 25 μM 1NM-PP1 for 0.5 hr. For FBP and pyruvate treatment, cells were pre-treated with Zymolase (Mpbio, 08320921) to increase the permeability. In brief, cells were grown in YPD medium until OD600 of 0.7–1.0, centrifuged and resuspended in 1 ml SB buffer (100 mM Sorbitol, 20 mM Tris pH 7.4). 10 μl Zymolase was then added and incubated at 30 °C for 15 min. The spheroplasts were washed and cultured in YPD medium containing different concentrations of FBP and pyruvate for 3 hr.
# (§1) Cells were grown in 5 ml YPD or selective medium until OD600 of 0.7–1.0. Cells were harvested and lysed in alkaline lysis buffer (2 M NaOH, 8% 2-mercaptoethanol). After centrifugation, the protein pellet was resuspended in 150 μl 2×SDS-sample buffer. Protein samples were separated by 8–15% SDS-PAGE and transferred to PVDF membrane. The blots were probed with primary antibodies followed by incubation with horseradish peroxidase-labelled IgG secondary antibodies. The protein bands were visualized using the ECL Chemiluminescence Detection Kit (Bio-Rad, 170–5061) and quantified with Image J software (v.1.8.0).
# Jhd2-S321A, S340A = target: T1, Jhd2-S321A, S340A (Saccharomyces cerevisiae, UniProt P47156, S321A/S340A); experiment: Jhd2 protein level in Jhd2-S321A, S340A cells with MG132; type: cell-based, budding yeast (Saccharomyces cerevisiae); conditions: for Jhd2/GAPDH: Jhd2-S321A,S340A +MG132, Figure 5c
# T1 construct: 3xFLAG (C); made in house; host or cells: Saccharomyces cerevisiae BY4741, genomic JHD2 S321A S340A-3xFLAG
# T1 sequence (P47156 whole entry S321A/S340A): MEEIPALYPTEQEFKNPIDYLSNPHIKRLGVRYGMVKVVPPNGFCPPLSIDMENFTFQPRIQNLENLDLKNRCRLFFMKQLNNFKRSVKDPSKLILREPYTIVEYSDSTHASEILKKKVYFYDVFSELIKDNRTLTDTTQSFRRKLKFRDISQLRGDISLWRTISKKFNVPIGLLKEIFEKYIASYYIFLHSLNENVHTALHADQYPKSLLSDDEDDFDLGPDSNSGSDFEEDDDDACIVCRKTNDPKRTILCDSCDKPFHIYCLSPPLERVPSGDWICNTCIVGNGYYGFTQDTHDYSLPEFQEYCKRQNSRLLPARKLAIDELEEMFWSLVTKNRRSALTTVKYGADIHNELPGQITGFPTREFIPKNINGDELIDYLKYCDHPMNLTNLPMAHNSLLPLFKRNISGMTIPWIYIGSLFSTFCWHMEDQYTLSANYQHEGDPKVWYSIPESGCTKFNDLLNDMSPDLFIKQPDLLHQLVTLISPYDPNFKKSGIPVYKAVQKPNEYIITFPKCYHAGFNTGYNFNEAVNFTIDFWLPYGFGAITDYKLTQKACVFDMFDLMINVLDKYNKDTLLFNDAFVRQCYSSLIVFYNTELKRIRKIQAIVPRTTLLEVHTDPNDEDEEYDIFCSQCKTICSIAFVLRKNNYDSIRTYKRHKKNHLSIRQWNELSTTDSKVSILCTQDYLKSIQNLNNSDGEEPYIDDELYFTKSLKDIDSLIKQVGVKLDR
# Protocol: (§2) To determine how Tpk2-mediated Jhd2 phosphorylation regulates Jhd2 stability, we treated WT Jhd2 and Jhd2-S321A, S340A cells with MG132, the proteasome inhibitor. […] We also examined Jhd2 in a temperature-sensitive proteasome-deficient mutant (cim3-1), which is defective in ATPase activity of 26 S proteasome.
# as §1
# WT Jhd2 = target: T2, WT Jhd2 (Saccharomyces cerevisiae, UniProt P47156); experiment: Jhd2 protein level in WT Jhd2 cells with MG132; type: cell-based, budding yeast (Saccharomyces cerevisiae); conditions: for Jhd2/GAPDH: WT +MG132, WT without MG132 = 1, Figure 5c
# T2 construct: 3xFLAG (C); made in house; host or cells: Saccharomyces cerevisiae BY4741, genomic JHD2-3xFLAG::KAN
# Protocol: as §2, §1
# Rpd3 = Rpd3 (UniProt P32561); experiment: in vivo co-IP, Western blot; conditions: reference: WT Jhd2; sites S321,S340
# histone H3 1-23 [1] = target: histone H3 1-23 (UniProt P61830); experiment: biotinylated peptide pull-down, Western blot; conditions: reference: WT Jhd2; sites S321,S340
# histone H3 1-23 [2] = target: histone H3 1-23 (UniProt P61830); experiment: biotinylated peptide pull-down, Western blot; conditions: reference: WT Jhd2; sites S321,S340; remark: listed apart in the source
# histone H3 1-23 [3] = target: histone H3 1-23 (UniProt P61830); experiment: biotinylated peptide pull-down, Western blot; conditions: reference: WT Jhd2; sites S321,S340; remark: listed apart in the source
# [4] = target: T3, Tpk2-phosphorylated Jhd2-FLAG (S. cerevisiae (budding yeast), UniProt P47156 1-728, phosphoserine at 321 and 340 (by purified Tpk2 in vitro)); experiment: co-IP; in vitro: dephosphorylated Jhd2 immobilized on anti-FLAG beads, incubated with or without purified Tpk2, Tpk2 removed, then incubated with purified Not4; conditions: both partners purified
# T3 construct: Jhd2 of budding yeast, phosphorylated in vitro by Tpk2 at S321 and S340; also called immobilized phosphorylated Jhd2; not shown: FLAG, C-terminal, kept
# T3 sequence (looked up): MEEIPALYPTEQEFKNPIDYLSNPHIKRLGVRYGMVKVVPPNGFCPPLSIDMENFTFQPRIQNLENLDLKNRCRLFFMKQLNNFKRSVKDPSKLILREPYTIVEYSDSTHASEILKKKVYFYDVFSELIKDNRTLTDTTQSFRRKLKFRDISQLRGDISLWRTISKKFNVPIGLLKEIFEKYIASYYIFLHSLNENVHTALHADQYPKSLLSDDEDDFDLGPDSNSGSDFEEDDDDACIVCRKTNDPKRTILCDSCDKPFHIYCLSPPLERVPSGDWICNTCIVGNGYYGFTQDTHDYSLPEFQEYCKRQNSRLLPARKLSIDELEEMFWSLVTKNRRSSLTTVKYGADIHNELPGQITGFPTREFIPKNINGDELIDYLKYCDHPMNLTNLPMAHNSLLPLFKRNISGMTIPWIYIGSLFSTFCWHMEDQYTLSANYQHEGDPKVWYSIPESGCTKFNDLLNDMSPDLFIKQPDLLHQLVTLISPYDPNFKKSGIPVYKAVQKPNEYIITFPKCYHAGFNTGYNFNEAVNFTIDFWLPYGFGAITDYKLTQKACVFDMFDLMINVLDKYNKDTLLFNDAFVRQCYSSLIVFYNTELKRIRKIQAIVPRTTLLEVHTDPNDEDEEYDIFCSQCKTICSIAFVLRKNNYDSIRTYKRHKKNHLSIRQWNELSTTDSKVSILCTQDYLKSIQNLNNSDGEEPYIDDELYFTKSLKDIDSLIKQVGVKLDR
# Jhd2-FLAG = target: T4, Jhd2-FLAG (S. cerevisiae (budding yeast), UniProt P47156 1-728, phosphoserine at 321 and 340 (phosphorylated in vivo by Tpk2; extent not stated)); experiment: co-IP; yeast whole cell extract digested with MNase, anti-FLAG M2 agarose 1 hr 4 °C, washed with 350 mM NaCl, 0.1% NP-40, Western blots; WT and tpk2Δ cells; conditions: partners not purified
# T4 construct: Jhd2, JmjC domain-containing H3K4 demethylase of budding yeast; tag integrated at the genomic locus; this is named in the assay format or readout; also called WT Jhd2; FLAG-purified Jhd2; not shown: FLAG, C-terminal, kept
# T4 sequence (looked up): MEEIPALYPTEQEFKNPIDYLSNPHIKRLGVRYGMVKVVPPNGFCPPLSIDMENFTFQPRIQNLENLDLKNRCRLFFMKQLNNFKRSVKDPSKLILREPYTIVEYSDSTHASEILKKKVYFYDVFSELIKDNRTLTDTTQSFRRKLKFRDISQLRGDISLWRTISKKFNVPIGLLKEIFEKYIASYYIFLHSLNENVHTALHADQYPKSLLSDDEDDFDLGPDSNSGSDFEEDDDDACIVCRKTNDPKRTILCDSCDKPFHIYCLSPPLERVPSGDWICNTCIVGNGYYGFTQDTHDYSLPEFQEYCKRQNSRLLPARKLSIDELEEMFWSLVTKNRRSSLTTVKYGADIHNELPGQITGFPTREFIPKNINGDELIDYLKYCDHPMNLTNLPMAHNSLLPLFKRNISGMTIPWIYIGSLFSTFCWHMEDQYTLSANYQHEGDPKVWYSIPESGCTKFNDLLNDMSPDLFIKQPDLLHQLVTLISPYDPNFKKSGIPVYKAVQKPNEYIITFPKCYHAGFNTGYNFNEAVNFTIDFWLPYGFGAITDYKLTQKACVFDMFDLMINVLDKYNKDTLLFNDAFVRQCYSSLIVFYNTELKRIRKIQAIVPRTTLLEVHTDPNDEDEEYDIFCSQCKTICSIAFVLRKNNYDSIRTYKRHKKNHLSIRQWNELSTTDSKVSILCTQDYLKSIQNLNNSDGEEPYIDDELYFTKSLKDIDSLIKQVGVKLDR
molecule,measurement,setting,value
"O=CC[C@@H](O)[C@H](O)[C@H](O)CO [2-DG, 2-Deoxy-D-glucose]",H3K4me3 level after blocking glycolysis,H3K4me3; 2-DG,significantly reduced H3K4me3
"O=C(COP(=O)(O)O)[C@@H](O)[C@H](O)[C@H](O)COP(=O)(O)O [FBP, fructose-1,6-biphosphate]",H3K4me3 level after FBP or pyruvate treatment,H3K4me3,increased H3K4me3 in a dose-dependent manner
CC(C)C[C@@H](C=O)NC(=O)[C@H](CC(C)C)NC(=O)[C@H](CC(C)C)NC(=O)OCc1ccccc1 [MG132] (Cbz-Leu-Leu-Leu-aldehyde),Jhd2/GAPDH,"Jhd2-S321A, S340A; WT without MG132 = 1, Jhd2-S321A,S340A without MG132 = 1.51305, replicate 4",2.104
same,Jhd2/GAPDH,"Jhd2-S321A, S340A; WT without MG132 = 1, Jhd2-S321A,S340A without MG132 = 1.6488, replicate 2",1.451
same,Jhd2/GAPDH,"Jhd2-S321A, S340A; WT without MG132 = 1, Jhd2-S321A,S340A without MG132 = 1.64948, replicate 1",1.2682
same,Jhd2/GAPDH,"Jhd2-S321A, S340A; WT without MG132 = 1, Jhd2-S321A,S340A without MG132 = 1.95118, replicate 3",2.131
same,"Jhd2 protein level, Jhd2-S321A, S340A","Jhd2-S321A, S340A; MG132, Western blot","had no significant effect on Jhd2-S321A, S340A protein level"
same,"Jhd2 protein level, WT Jhd2","WT Jhd2; MG132, Western blot",significantly increased WT Jhd2 protein levels
same,Jhd2/GAPDH,WT Jhd2; replicate 1,1.233
same,Jhd2/GAPDH,WT Jhd2; replicate 2,1.396
same,Jhd2/GAPDH,WT Jhd2; replicate 3,1.451
same,Jhd2/GAPDH,WT Jhd2; replicate 4,1.135
CC(=O)C(=O)O [pyruvate],H3K4me3 level after FBP or pyruvate treatment,H3K4me3,FBP but not pyruvate treatment increased H3K4me3
"Jhd2 (from UniProt P47156) Jhd2-S321A, S340A",binding against the reference,Rpd3,stronger
same,binding against the reference,histone H3 1-23 [1],stronger
same,binding against the reference,histone H3 1-23 [2],stronger
same,binding against the reference,histone H3 1-23 [3],stronger
"Not4 (enzyme, S. cerevisiae (budding yeast), UniProt P34909 1-587, looked up, Not4, E3 ubiquitin ligase of budding yeast; also called purified Not4; source: S. cerevisiae) MMNPHVQENLQAIHNALSNFDTSFLSEDEEDYCPLCIEPMDITDKNFFPCPCGYQICQFCYNNIRQNPELNGRCPACRRKYDDENVRYVTLSPEELKMERAKLARKEKERKHREKERKENEYTNRKHLSGTRVIQKNLVYVVGINPPVPYEEVAPTLKSEKYFGQYGKINKIVVNRKTPHSNNTTSEHYHHHSPGYGVYITFGSKDDAARCIAQVDGTYMDGRLIKAAYGTTKYCSSYLRGLPCPNPNCMFLHEPGEEADSFNKRELHNKQQAQQQSGGTAFTRSGIHNNISTSTAGSNTNLLSENFTGTPSPAAMRAQLHHDSHTNAGTPVLTPAPVPAGSNPWGVTQSATPVTSINLSKNSSSINLPTLNDSLGHHTTPTTENTITSTTTTTNTNATSHSHGSKKKQSLAAEEYKDPYDALGNAVDFLDARLHSLSNYQKRPISIKSNIIDEETYKKYPSLFSWDKIEASKKSDNTLANKLVEILAIKPIDYTASVVQFLQSVNVGVNDNITITDNTKTPTQPIRLQTVSQQIQPPLNVSTPPPGIFGPQHKVPIQQQQMGDTSSRNSSDLLNQLINGRKIIAGN",binding result,[4],binds
same,binding result,Jhd2-FLAG,binds

# — article PMC9515143, “Phosphorylation of Jhd2 by the Ras-cAMP-PKA(Tpk2) pathway regulates histone modifications and autophagy” (Nature Communications, 2022)
